# Laboratory results: patent publication US4439426A, “Semisynthetic macrolidic antibiotics, intermediate compounds for their preparation and related pharmaceutical compositions containing them” (priority 1981, dated 1984)
# Key:
# [1] = tested on: Streptococcus pneumoniae ATCC 6303 LRP 35; test: Minimum bactericidal concentration (MBC); type: cell-based
# Text: (§1) the bacterial power, expressed as the minimum bactericidal power (MBC) against some Gram positive aerobic stocks (table 5).
# [2] = tested on: Corynebacterium diphteriae LRP 24; test: Minimum bactericidal concentration (MBC); type: cell-based
# Text: as §1
# [3] = tested on: Streptococcus faecalis subs. zymogenes LRP 61; test: Minimum bactericidal concentration (MBC); type: cell-based
# Text: as §1
# [4] = tested on: Streptococcus pyogenes ATCC 8668 LRP 34; test: Minimum bactericidal concentration (MBC); type: cell-based
# Text: as §1
# [5] = tested on: Staphylococcus aureus ATCC 6538 P LRP 39; test: Minimum bactericidal concentration (MBC); type: cell-based
# Text: as §1
# [6] = Stability in acidic environment at 25° C. (half-life of initial microbiological activity); type: physicochemical; conditions: aqueous solution
# Method: Stability in acidic environnment at 25° C. of the novel
# Note: t 1/2 represents the time for reducing to one half the initial powe
# of the antibiotic determined by microbiological method through diffusion
# on a plate using the test stock Microccocus luteus (Sarcina lutea) ATCC
# [7] = tested on: Streptococcus pneumoniae ATCC 6303 LRP 35; test: Bacteriostatic power in liquid medium (MIC); type: cell-based; conditions: Streptococcus pneumoniae, ATCC6303, read-out: Minimum inhibiting concentration
# How it was run: (§2)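 Each strain, whether aerobic or anaerobic and Gram positive or negative, is tested for growth inhibition; the lowest inhibiting concentration is reported.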
# [8] = tested on: Corynebacterium diphteriae LRP 24; test: Bacteriostatic power in liquid medium (MIC); type: cell-based; conditions: Corynebacterium, LRP24, read-out: Minimum inhibiting concentration
# How it was run: as §2
# [9] = tested on: Streptococcus pyogenes ATCC 8668 LRP 34; test: Bacteriostatic power in liquid medium (MIC); type: cell-based; conditions: Streptococcus pyogenes, ATCC8668, read-out: Minimum inhibiting concentration
# How it was run: as §2
# [10] = tested on: Streptococcus faecalis subs. zymogenes ATCC 12958 LRP 61; test: Bacteriostatic power in liquid medium (MIC); type: cell-based; conditions: Enterococcus faecalis, ATCC12958, read-out: Minimum inhibiting concentration
# How it was run: as §2
# [11] = tested on: Staphylococcus aureus ATCC 6538 P LRP 39; test: Bacteriostatic power in liquid medium (MIC); type: cell-based; conditions: Staphylococcus aureus, ATCC6538, read-out: Minimum inhibiting concentration
# How it was run: as §2
# Salmonella typhy LRP 8 = test: microbe, parasite or virus in culture; type: cell-based; conditions: LRP8, solid medium, read-out: Minimum inhibiting concentration
# How it was run: as §2
# [12] = tested on: Clostridium perfrigens ATCC 3624 LRP 206; test: microbe, parasite or virus in culture; type: cell-based; conditions: ATCC3624, solid medium, anaerobic, read-out: Minimum inhibiting concentration
# How it was run: as §2
# [13] = tested on: Streptococcus pneumoniae ATCC 6303 LRP 35; test: Bacteriostatic power in solid medium (MIC); type: cell-based; conditions: Streptococcus pneumoniae, ATCC6303, read-out: Minimum inhibiting concentration
# How it was run: as §2
# [14] = tested on: Corynebacterium diphteriae LRP 24; test: Bacteriostatic power in solid medium (MIC); type: cell-based; conditions: Corynebacterium, LRP24, read-out: Minimum inhibiting concentration
# How it was run: as §2
# [15] = tested on: Micrococcus luteus ATCC 15957 LRP 193; test: Bacteriostatic power in solid medium (MIC); type: cell-based; conditions: Micrococcus luteus, ATCC15957, read-out: Minimum inhibiting concentration
# How it was run: as §2
# [16] = tested on: Streptococcus pneumoniae ATCC 6303 LRP 52; test: Bacteriostatic power in solid medium (MIC); type: cell-based; conditions: Streptococcus pneumoniae, ATCC6303, read-out: Minimum inhibiting concentration
# How it was run: as §2
# [17] = tested on: Fusobacteriumnecrophroum ATCC 27852 LRP 210; test: Bacteriostatic power in solid medium (MIC); type: cell-based; conditions: read-out: Minimum inhibiting concentration
# How it was run: as §2
# [18] = tested on: Streptococcus pyogenes ATCC 8668 LRP 34; test: Bacteriostatic power in solid medium (MIC); type: cell-based; conditions: Streptococcus pyogenes, ATCC8668, read-out: Minimum inhibiting concentration
# How it was run: as §2
# [19] = tested on: Streptococcus pneumoniae ATCC 6303 LRP 53; test: Bacteriostatic power in solid medium (MIC); type: cell-based; conditions: Streptococcus pneumoniae, ATCC6303, read-out: Minimum inhibiting concentration
# How it was run: as §2
# Shigella sonnei LRP 5 = test: Bacteriostatic power in solid medium (MIC); type: cell-based; conditions: LRP5, read-out: Minimum inhibiting concentration
# How it was run: as §2
# [20] = tested on: Haemophilus influenzae ATCC 19418 LRP 213; test: Bacteriostatic power in solid medium (MIC); type: cell-based; conditions: Haemophilus influenzae, ATCC19418, read-out: Minimum inhibiting concentration
# How it was run: as §2
# [21] = tested on: Klelsiella pneumoniae LRP 54; test: Bacteriostatic power in solid medium (MIC); type: cell-based; conditions: read-out: Minimum inhibiting concentration
# How it was run: as §2
# [22] = tested on: Staphylococcus aureus ATCC 14154 LRP 78; test: Bacteriostatic power in solid medium (MIC); type: cell-based; conditions: Staphylococcus aureus, ATCC14154, read-out: Minimum inhibiting concentration
# How it was run: as §2
# [23] = tested on: Neisseria gonorrhoeae ATCC 19424 LRP 214; test: Bacteriostatic power in solid medium (MIC); type: cell-based; conditions: Neisseria gonorrhoeae, ATCC19424, read-out: Minimum inhibiting concentration
# How it was run: as §2
# [24] = tested on: Micrococcus luteus ATCC 9341 LRP 6; test: Bacteriostatic power in solid medium (MIC); type: cell-based; conditions: Micrococcus luteus, ATCC9341, read-out: Minimum inhibiting concentration
# How it was run: as §2
# [25] = tested on: Streptococcus pyogenes ATCC 8668 LRP 197; test: Bacteriostatic power in solid medium (MIC); type: cell-based; conditions: Streptococcus pyogenes, ATCC8668, read-out: Minimum inhibiting concentration
# How it was run: as §2
# [26] = tested on: Acholeplasma laidlawii ATCC 23206 LRP 204; test: Bacteriostatic power in solid medium (MIC); type: cell-based; conditions: Acholeplasma laidlawii, ATCC23206, read-out: Minimum inhibiting concentration
# How it was run: as §2
# [27] = tested on: Proteus vulgaris ATCC 6380 LRP 13; test: Bacteriostatic power in solid medium (MIC); type: cell-based; conditions: Proteus vulgaris, ATCC6380, read-out: Minimum inhibiting concentration
# How it was run: as §2
# [28] = tested on: Streptococcus faecalis LRP 7; test: Bacteriostatic power in solid medium (MIC); type: cell-based; conditions: Enterococcus faecalis, LRP7, read-out: Minimum inhibiting concentration
# How it was run: as §2
# [29] = tested on: Pseudomonas aeruginosa LRP 9; test: Bacteriostatic power in solid medium (MIC); type: cell-based; conditions: Pseudomonas aeruginosa, LRP9, read-out: Minimum inhibiting concentration
# How it was run: as §2
# [30] = tested on: Mycoplasma hominis I ATCC 14027 LRP 211; test: Bacteriostatic power in solid medium (MIC); type: cell-based; conditions: Metamycoplasma hominis, ATCC14027, read-out: Minimum inhibiting concentration
# How it was run: as §2
# Bacillus subtilis LRP 25 = test: Bacteriostatic power in solid medium (MIC); type: cell-based; conditions: Bacillus subtilis, LRP25, read-out: Minimum inhibiting concentration
# How it was run: as §2
# Escherichia coli LRP 50 = test: Bacteriostatic power in solid medium (MIC); type: cell-based; conditions: Escherichia coli, LRP50, read-out: Minimum inhibiting concentration
# How it was run: as §2
# [31] = tested on: Streptococcus faecalis subsp. zymogenes ATCC 12958 LRP 61; test: Bacteriostatic power in solid medium (MIC); type: cell-based; conditions: Enterococcus faecalis, ATCC12958, read-out: Minimum inhibiting concentration
# How it was run: as §2
# [32] = tested on: Staphylococcus aureus ATCC 6538P LRP 39; test: Bacteriostatic power in solid medium (MIC); type: cell-based; conditions: Staphylococcus aureus, ATCC6538P, read-out: Minimum inhibiting concentration
# How it was run: as §2
# [33] = tested on: Staphylococcus aureus ATCC 6538P LRP 14; test: Bacteriostatic power in solid medium (MIC); type: cell-based; conditions: Staphylococcus aureus, ATCC6538P, read-out: Minimum inhibiting concentration
# How it was run: as §2
# [34] = tested on: Bacteroides fragilis ATCC 23745 LRP 205; test: Bacteriostatic power in solid medium (MIC); type: cell-based; conditions: Bacteroides fragilis, ATCC23745, read-out: Minimum inhibiting concentration
# How it was run: as §2
compound,measurement,setting,value
"CC[C@H]1OC(=O)[C@H](C)[C@@H](O[C@H]2C[C@H](OC)[C@@H](O)[C@H](C)O2)[C@H](C)[C@@H](O[C@@H]2O[C@H](C)C[C@H](N(C)C)[C@H]2O)[C@](C)(O)C[C@](C)(F)C(=O)[C@H](C)[C@@H](O)[C@]1(C)O [P-80207, 3-O-oleandrosyl-5-O-desosaminyl-(8S)-8-fluoroerythronolide A]",MBC/MIC,[1],2
same,MBC,"[1]; Streptococcus pneumoniae, ATCC6303, read-out: Minimum bactericidal concentration (MBC)",0.097 µg/mL
same,MBC/MIC,[2],4
same,MBC,"[2]; Corynebacterium, LRP24, read-out: Minimum bactericidal concentration (MBC)",0.195 µg/mL
same,MBC/MIC,[3],8
same,MBC,"[3]; Enterococcus faecalis, read-out: Minimum bactericidal concentration (MBC)",6.25 µg/mL
same,MBC/MIC,[4],8
same,MBC,"[4]; Streptococcus pyogenes, ATCC8668, read-out: Minimum bactericidal concentration (MBC)",0.78 µg/mL
same,MBC/MIC,[5],8
same,MBC,"[5]; Staphylococcus aureus, ATCC6538, read-out: Minimum bactericidal concentration (MBC)",6.25 µg/mL
same,half-life,[6]; pH 2,10 h
same,half-life,[6]; pH 3,100 h
same,MIC,[7],0.049 µg/mL
same,MIC,[8],0.049 µg/mL
same,MIC,[9],0.097 µg/mL
same,MIC,[10],0.78 µg/mL
same,MIC,[11],0.78 µg/mL
same,MIC,Salmonella typhy LRP 8,25 µg/mL
same,MIC,[12],6.25 µg/mL
same,MIC,[13],0.049 µg/mL
same,MIC,[14],0.049 µg/mL
same,MIC,[15],25 µg/mL
same,MIC,[16],0.049 µg/mL
same,MIC,[17],12.5 µg/mL
same,MIC,[18],0.049 µg/mL
same,MIC,[19],0.097 µg/mL
same,MIC,Shigella sonnei LRP 5,25 µg/mL
same,MIC,[20],12.5 µg/mL
same,MIC,[21],25 µg/mL
same,MIC,[22],25 µg/mL
same,MIC,[23],0.097 µg/mL
same,MIC,[24],0.049 µg/mL
same,MIC,[25],0.097 µg/mL
same,MIC,[26],3.12 µg/mL
same,MIC,[27],25 µg/mL
same,MIC,[28],0.39 µg/mL
same,MIC,[29],25 µg/mL
same,MIC,[30],25 µg/mL
same,MIC,Bacillus subtilis LRP 25,0.39 µg/mL
same,MIC,Escherichia coli LRP 50,25 µg/mL
same,MIC,[31],0.39 µg/mL
same,MIC,[32],0.39 µg/mL
same,MIC,[33],0.39 µg/mL
same,MIC,[34],3.12 µg/mL
